Tests used:
ScHxt9 = biological target: T1, ScHxt9 (Saccharomyces cerevisiae, UniProt P40885); experiment: growth complementation of transporter-null L-arabinose-utilizing yeast; type: cell-based; settings: 20 g/L L-arabinose plates, 30°C, 10 days, strain TSY01; growth read-out only
T1 construct: gene HXT9; HXT9 under shortened HXT7 promoter on 2-micron plasmid pTHHXT9, expressed in hexose-transporterless strain TSY01
T1 sequence (P40885 1-567): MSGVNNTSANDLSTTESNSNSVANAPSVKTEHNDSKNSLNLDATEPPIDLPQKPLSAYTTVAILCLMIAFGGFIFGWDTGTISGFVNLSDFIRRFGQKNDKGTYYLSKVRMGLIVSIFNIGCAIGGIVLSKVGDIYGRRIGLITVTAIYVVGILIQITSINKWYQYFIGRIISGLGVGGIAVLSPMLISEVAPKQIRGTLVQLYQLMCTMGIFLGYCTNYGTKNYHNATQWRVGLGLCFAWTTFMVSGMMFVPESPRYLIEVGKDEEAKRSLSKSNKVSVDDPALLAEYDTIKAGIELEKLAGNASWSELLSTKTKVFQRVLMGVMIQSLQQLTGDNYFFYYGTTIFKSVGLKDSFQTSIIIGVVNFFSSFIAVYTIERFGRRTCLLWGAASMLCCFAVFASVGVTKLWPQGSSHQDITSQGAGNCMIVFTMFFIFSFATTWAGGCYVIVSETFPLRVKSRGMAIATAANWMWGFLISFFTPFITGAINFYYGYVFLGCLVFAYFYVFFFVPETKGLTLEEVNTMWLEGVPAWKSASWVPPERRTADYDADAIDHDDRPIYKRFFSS

ScHxt10 = biological target: T2, ScHxt10 (Saccharomyces cerevisiae, UniProt P43581); experiment: as above; type: cell-based; settings: 20 g/L L-arabinose plates, 30°C, 10 days, strain TSY01; growth read-out only
T2 construct: gene HXT10; HXT10 under shortened HXT7 promoter on 2-micron plasmid pTHHXT10, expressed in hexose-transporterless strain TSY01
T2 sequence (P43581 1-546): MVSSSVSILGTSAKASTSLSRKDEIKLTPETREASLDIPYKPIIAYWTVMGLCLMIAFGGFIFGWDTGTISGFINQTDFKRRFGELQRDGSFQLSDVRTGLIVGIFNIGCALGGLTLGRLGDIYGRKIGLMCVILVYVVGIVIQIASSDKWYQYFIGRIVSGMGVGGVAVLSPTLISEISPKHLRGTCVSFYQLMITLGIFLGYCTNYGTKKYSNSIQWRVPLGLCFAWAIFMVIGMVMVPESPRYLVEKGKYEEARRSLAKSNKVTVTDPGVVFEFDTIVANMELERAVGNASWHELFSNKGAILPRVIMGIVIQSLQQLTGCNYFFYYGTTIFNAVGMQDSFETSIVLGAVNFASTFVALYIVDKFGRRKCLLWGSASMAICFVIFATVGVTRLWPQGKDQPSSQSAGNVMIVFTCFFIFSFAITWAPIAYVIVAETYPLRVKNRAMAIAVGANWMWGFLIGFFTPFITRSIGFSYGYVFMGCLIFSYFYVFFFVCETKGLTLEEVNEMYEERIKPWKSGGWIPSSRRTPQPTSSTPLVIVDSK

SMILES: OC1OC[C@H](O)[C@H](O)[C@H]1O (stereo partly drawn) [L-arabinose]
- growth complementation of transporter-null L-arabinose-utilizing yeast (ScHxt9): Transformants expressing ScGal2, ScHxt9 and ScHxt10 could grow on the L-arabinose medium
- growth complementation of transporter-null L-arabinose-utilizing yeast (ScHxt10): Transformants expressing ScGal2, ScHxt9 and ScHxt10 could grow on the L-arabinose medium
